Columns and labels:
[1] = target: T1, Mdm2(C464A)-luciferase fusion protein (Homo sapiens, UniProt Q00987, C464A); experiment: counter screen in control Mdm2(C464A)-luciferase cell line; assay type: cell-based
T1 construct: Using full-length Mdm2 allowed for the presence of all domains of Mdm2; expressed in transfected cells
Method: The Mdm2-luciferase cell line was seeded at 7,500 cells per well, in 384-well white plates (PerkinElmer, Waltham, Mass., Cat. No. 6007688), in 27 μl of media (DMEM with FBS and P/S). Assay plates with cells were incubated at 37° C. overnight to allow cells to adhere. After 24 hours, 2 μl from the ‘mother’ plate (4 mg/ml) was transferred to a ‘daughter plate’ containing 148 μl media in order to dilute the compound 1:75. Next, 3 μl from each well of the ‘daughter plates’ was added to triplicate assay plates for a final concentration of 5.33 μg/ml. Assay plates were incubated at 37° C. for 2 hours. Then the cells were lysed with the addition of 30 μl of luminescence buffer (PerkinElmer, Cat. No. 6016989), and the plates were incubated at room temperature for 30 minutes before being analyzed on a Victor3 Plate Reader (PerkinElmer) for luminescence. Compounds that caused an increase in luminescence greater than 30% were re-ordered for further analysis. […] This was determined by comparing the negative control, no treatment, to the positive control, 10 μM MG132. […]
The above experiments verified that the cell lines could function as a valid system to screen for Mdm2 E3 ligase inhibitors. […] All compounds were incubated with the Mdm2-luciferase cell line for 2 hours, after which relative luminescence was detected by the addition of a luminesence buffer. […]

[2] = target: T2, Roc1/Cul1 E3 RING domain ligase (Homo sapiens, UniProt P62877+Q13616); experiment: in vitro Roc1/Cul1 E3 ligase ubiquitination assay; assay type: biochemical
T2 construct: gift from Zhen-Qiang Pan, Mount Sinai School of Medicine
T2 sequence (P62877 whole entry, the tested form may be a part): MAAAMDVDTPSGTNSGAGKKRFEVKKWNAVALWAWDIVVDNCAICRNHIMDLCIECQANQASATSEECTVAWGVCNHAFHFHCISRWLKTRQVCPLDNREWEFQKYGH
T2 sequence (Q13616 whole entry, the tested form may be a part): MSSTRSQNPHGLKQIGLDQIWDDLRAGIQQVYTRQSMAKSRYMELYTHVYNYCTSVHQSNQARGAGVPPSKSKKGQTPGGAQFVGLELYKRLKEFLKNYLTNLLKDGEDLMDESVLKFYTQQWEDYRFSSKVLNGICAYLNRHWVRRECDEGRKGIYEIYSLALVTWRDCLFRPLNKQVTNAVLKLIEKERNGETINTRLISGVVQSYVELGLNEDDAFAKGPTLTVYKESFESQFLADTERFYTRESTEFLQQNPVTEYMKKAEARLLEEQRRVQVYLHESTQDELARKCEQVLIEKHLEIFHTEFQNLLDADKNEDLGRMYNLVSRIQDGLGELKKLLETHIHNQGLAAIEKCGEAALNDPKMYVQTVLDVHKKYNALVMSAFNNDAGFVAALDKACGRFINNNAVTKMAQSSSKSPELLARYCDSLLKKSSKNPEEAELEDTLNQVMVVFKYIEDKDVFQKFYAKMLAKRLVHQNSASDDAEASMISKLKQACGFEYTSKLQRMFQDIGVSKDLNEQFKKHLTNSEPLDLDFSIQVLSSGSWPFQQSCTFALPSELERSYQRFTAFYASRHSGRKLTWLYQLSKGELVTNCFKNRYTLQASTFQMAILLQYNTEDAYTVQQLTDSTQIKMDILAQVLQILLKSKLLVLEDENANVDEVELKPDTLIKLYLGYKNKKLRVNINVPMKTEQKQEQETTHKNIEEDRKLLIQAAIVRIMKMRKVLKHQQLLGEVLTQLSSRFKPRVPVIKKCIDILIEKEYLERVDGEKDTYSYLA
Method: These assays were performed with 100 ng of full-length Flag-Mdm2 or 200 ng of Flag-Mdm2/HA-MdmX complexes (100 ng of each protein as each are present in a 1:1 ratio, when purified), ^32P-labeled ubiquitin, UbCH5c, and E1. Following a 30-minute incubation at 37° C., reactions were terminated and resolved on a SDS-PAGE gel followed by autoradiography. PC indicates positive control, and NC indicates negative control with UbCH5C eliminated from the reaction. The gels were quantified by phosphoimaging using ImageQuant software (GE Healthcare Bio-Sciences Corp., Piscataway, N.J.). […] Reactions were performed as in FIG. 11A except 500 ng GST-Mdm2 (residues 400-491) and GST-MdmX (residues 400-490) were used for ubiquitin polymerization. […] Reactions were performed as in FIG. 11A except with 3 μg of the Roc1/Cul1 ligase complex. Ubiquitination activity of the complex was tested in the presence of increasing concentrations of MEL23 and MEL24.
Ubiquitination assays in the presence of increasing concentrations of MEL compounds were performed with 1.5 μg of the Roc1-Cul1 ligase complex, ^32P-labeled ubiquitin, UbCH5c, and E1. Following 30 min incubation at 37° C., reactions were terminated and resolved on a SDS-PAGE gel (FIG. 31A) followed by autoradiography and quantitation (FIG. 31B). […]

T1 sequence (Q00987 whole entry C464A, the tested form may be a part): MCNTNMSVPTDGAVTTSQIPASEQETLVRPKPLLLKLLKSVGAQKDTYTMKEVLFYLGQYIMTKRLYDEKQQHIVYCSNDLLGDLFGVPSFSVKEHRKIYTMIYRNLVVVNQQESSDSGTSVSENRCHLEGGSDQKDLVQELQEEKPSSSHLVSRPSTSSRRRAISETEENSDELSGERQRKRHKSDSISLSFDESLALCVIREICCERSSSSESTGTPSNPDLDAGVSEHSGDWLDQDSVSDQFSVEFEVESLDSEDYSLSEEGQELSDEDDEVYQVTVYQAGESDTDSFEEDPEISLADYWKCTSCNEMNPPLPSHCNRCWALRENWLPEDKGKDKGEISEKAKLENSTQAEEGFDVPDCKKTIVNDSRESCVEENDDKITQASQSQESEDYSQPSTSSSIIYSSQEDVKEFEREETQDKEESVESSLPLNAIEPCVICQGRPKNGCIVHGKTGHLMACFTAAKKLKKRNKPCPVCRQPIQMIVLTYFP

Compound: CCCCn1c(=O)[nH]c(O)c(C2NCCc3c2[nH]c2ccccc32)c1=O (stereo not shown) [MEL23]
- luminescence of the control Mdm2(C464A)-luciferase cell line [1]: did not significantly affect
- Roc1/Cul1 E3 ligase activity in vitro [2]: no inhibition

Compound: Cn1c(O)c(C2NCCc3c2[nH]c2ccccc32)c(=O)n(C)c1=O (stereo not shown) [MEL24]
- luminescence of the control Mdm2(C464A)-luciferase cell line [1]: did not significantly affect
- Roc1/Cul1 E3 ligase activity in vitro [2]: no inhibition
